From publication PMC8569887 (Journal of medicinal chemistry, 2021) come the findings set out here.

Entries after “also recorded” stand apart in the source; their conditions may differ.

The nature of data set [1]: Brain and plasma pharmacokinetics after i.p. dosing. The class given is in vivo. The conditions noted are these: CD1 mice.
Data set [2] has as its system primary rat cortical neurons (axonal AcTub staining). It is filed as cell-based. The conditions noted are these: 1 μM compound; for AcTub staining and axonal processes upon co-addition with okadaic acid: +OA (15 nM, 8 hours); for axonal acetyl-tubulin staining in the absence of OA: relative to vehicle.
The test system of data set [3] is primary mouse cortical neurons (AcTub levels). The data set is described as follows: AcTub ELISA in primary mouse cortical neurons treated with okadaic acid. The class given is cell-based. Particulars: 10 μM (higher concentration). (An ELISA detects its analyte on a solid surface through an enzyme-linked reagent.)
For a further data set, the system named is QBI293 cells. The data set can be described thus: Cytotoxicity in rapidly dividing QBI293 cells. It is filed as cell-based. The conditions noted are these: values in Supporting Information.
In another data set the test system is HeLa cells. The data set is described as follows: Cytotoxicity in rapidly dividing HeLa cells. The class given is cell-based. Particulars: values in Supporting Information.

On to `C[C@@H](Nc1c(-c2c(F)cc(C#N)cc2F)c(Cl)nc2ncnn12)C(C)(C)C` [Compound 69, (R)-4-(5-Chloro-7-((3,3-dimethylbutan-2-yl)amino)-[1,2,4]triazolo[1,5-a]pyrimidin-6-yl)-3,5-difluorobenzonitrile], for which, in data set [1] (i.p. dosing, compared to 3), the “metabolic stability from plasma PK compared with lead compound 3” value is on record as “greater metabolic stability”. In data set [1] (i.p. injection), the “clearance compared to 3” value is “reduced clearance” and the “plasma half-life compared to 3” value is “increased plasma half-life”. Also, in data set [2], the “AcTub staining and axonal processes upon co-addition with okadaic acid” value was “protects the MT network from okadaic acid-induced collapse; also recorded: normalization of AcTub staining and axonal processes”; the “axonal acetyl-tubulin staining in the absence of OA” value is recorded as “increased axonal acetyl-tubulin staining”. Besides, the “AcTub levels in neuron homogenates in the presence of OA” value in data set [3] is “AcTub levels comparable to those in neurons without OA treatment”.
On to `CC(C)[C@@H](C)Nc1c(-c2c(F)cc(F)cc2F)c(Cl)nc2ncnn12` [Compound 3, reference compound], for which, in data set [2], the “AcTub staining and axonal processes upon co-addition with okadaic acid” value was “normalization of AcTub staining and axonal processes”; the “axonal acetyl-tubulin staining in the absence of OA” value is listed as “increased axonal acetyl-tubulin staining”.
Regarding `CC(C)[C@@H](Nc1c(-c2c(F)cc(F)cc2F)c(Cl)nc2ncnn12)C(F)(F)F` [Compound 46, (R)-5-Chloro-N-(1,1,1-trifluoro-3-methylbutan-2-yl)-6-(2,4,6-trifluorophenyl)-[1,2,4]triazolo[1,5-a]pyrimidin-7-amine], the “cytotoxicity IC50, side-by-side comparison of enantiomers” value in the data set with QBI293 cells and in the data set on HeLa cells was “did not reveal significant differences in IC50 values” in each case.
For `CC(C)[C@H](Nc1c(-c2c(F)cc(F)cc2F)c(Cl)nc2ncnn12)C(F)(F)F` [Compound 47, (S)-5-Chloro-N-(1,1,1-trifluoro-3-methylbutan-2-yl)-6-(2,4,6-trifluorophenyl)-[1,2,4]triazolo[1,5-a]pyrimidin-7-amine], the “cytotoxicity IC50, side-by-side comparison of enantiomers” value in the data set on QBI293 cells and with HeLa cells was “did not reveal significant differences in IC50 values” each time.
